Reference: patent publication US20250345356A1, “TIRAPAZAMINE COMPOSITIONS AND METHODS” (priority 2024, published 2025)
Where two headings read alike, the source gives them in different places.

Key:
[1] = 1-week intravenous study, single dose level of 1 g; cited from earlier work
[2] = cited from earlier work
[3] = mice, cited from earlier work
[4] = system: advanced head and neck cancer; details: intent-to-treat, with radiotherapy 70 Gy; cited from earlier work
[5] = PK of TPZ and metabolites SR4317 and SR4330 after intra-arterial injection of TPZ in NS vs HPβCD; type: in vivo, Sprague Dawley rats; details: for dose proportionality of plasma concentrations: 3.33 mg/kg vs. 7 mg/kg in either solvent; for reduction of plasma concentrations in the curve of HPβCD than that of NS: after TPZ in 1% HPβCD vs NS; for AUClast, HβC Mean / Cmax, HβC Mean / AUClast, Normal Saline (NS) Mean / Cmax, Normal Saline (NS) Mean: rats
Text: Purpose of the study: To evaluate the pharmacokinetics (PK) of tirapazamine and its metabolites, SR4317 and SR4330 [Graham, M A et al. Cancer Chemother. Pharmacol. (1997) 40 (1): 1-10], after injection of TPZ in 1% HPβCD or normal saline.
Animals: Twenty-four female (12) and male (12) Sprague Daley (SD) rats, weight 200-250 grams, respectively, with femoral artery and jugular vein cannulated, were purchased from, Taconic. Two extra cannulated male and female rates were used to test tolerability with buffer. Each rate was housed individually to safeguard the vessel catheters.
The study parameters are shown in Table 22. began after a 3-day period of adjustment to the animal facility. The study compound was injected into the femoral artery catheter (FAC at 2-1 m (by slow injection. Blood samples were collected from a jugular vein catheter (JVC) at 6 timepoints: 0 (baseline) and after drug administration at 15 and 30 minutes, 1 hr, 2 hr, and 6 hours. The volume of blood sample for each time point was approximately 0.6 mL. Plasma samples were collected in tubes containing sodium heparin as anti-coagulant. Plasma was prepared and frozen in −80° C. Rats were euthanized after the last blood sample (euthanized after the 6 hr time point).
Male rats were around 250 grams, and female 200 grams. There were 8 groups with Groups 1-4 females, and […]. Each group had 3 rats. TPZ was dissolved in NS or […] at a concentration 0.7 mg/mL.
The concentrations of TPZ and its metabolites, SR4317 and SR4330, in rat plasma samples were analyzed using liquid chromatography Tandem Mass Spectrometry (LC-MS) by Primera Analytical Solutions Corp (Princeton, NJ). Standards for TPZ, SR4317 and SR4330 were provided by Teclison, Inc. (Princeton, NJ) for calibration. All analytical data were reviewed for completeness and accuracy. Data transferred manually was cross-checked against source data which was part of the study raw data.
LC-MS analysis was conducted with Sciex 4000 with a Shimadzu LC-30 System.
The concentration data was imported and plotted with SAS program as ADPC (Analysis Dataset of Pharmacokinetics Concentrations) dataset. PK parameters calculated based on ADPC were output as an Analysis Dataset of Pharmacokinetics Parameters (ADPP) dataset.
PK parameters of each profile were calculated by non-compartmental analysis using SAS programming. BLQ (Below the Limit of Quantification) observation prior to the first measurable concentration was imputed as zero, otherwise, the BLQ observation was left as missing.
An apparent first-order terminal elimination rate constant (Kel) was calculated by linear least-squares regression analysis using at least three points (excluding Cmax) in the terminal log-linear phase. Uniform weighting was adopted when performing regression analysis. Linear-up/log-down approach was utilized to calculate AUC.
A linear model was built to evaluate the effect of solution on the PK parameters, adjusting for sex and dose. The model included sex (F, M), solution type (Normal saline, Hydroxypropyl-beta-Cyclodextrin “HP-beta-CD”), and dose (mg) as fixed effects. Sex and solution type are categorical variables (meaning a variable based on a qualitative, not numerical, property) and dose is a continuous variable (meaning a random variable that can take on an infinite number of values within a certain interval that represents measurable data). Separate models were built for each combination of analyte (TPZ, SR4317 and SR4330) and PK parameters (AUClast and Cmax) using the BY statement, which divides the observations from an input data set into groups for processing.
The difference of lease squared means between solution types was estimated. 95% confidence intervals (CI), and p-values for the difference were presented. The significance level (alpha) was set at 0.05, meaning that a p-value less than 0.05 was considered statistically significant.

[6] = system: HCC; details: cited from earlier work
[7] = intra-arterial TPZ 3.33 mg/kg in HPβCD
[8] = intra-arterial TPZ 3.33 mg/kg in NS
[9] = intra-arterial TPZ 7 mg/kg in HPβCD
[10] = intra-arterial TPZ 7 mg/kg in NS

Row | Compound | AUClast HβC/NS Ratio (%) ([5]; 3.33 mg/kg) | Cmax HβC/NS Ratio (%) ([5]; 3.33 mg/kg) | dose proportionality of plasma concentrations [5] | AUClast HβC/NS Ratio (%) ([5]; 7 mg/kg) | Cmax HβC/NS Ratio (%) ([5]; 7 mg/kg) | reduction of plasma concentrations in the curve of HPβCD than that of NS [5] | AUClast, HβC Mean [5, 7] [µg·h/mL] | Cmax, HβC Mean [5, 7] [µg/mL] | AUClast, Normal Saline (NS) Mean [5, 8] [ng·h/mL] | Cmax, Normal Saline (NS) Mean [5, 8] [µg/mL] | AUClast, HβC Mean [5, 9] [µg·h/mL] | Cmax, HβC Mean [5, 9] [µg/mL] | AUClast, Normal Saline (NS) Mean [5, 10] [ng·h/mL] | Cmax, Normal Saline (NS) Mean [5, 10] [µg/mL] | further results
1 | 2-hydroxypropyl-β-cyclodextrin [HPβCD] |  |  |  |  |  |  |  |  |  |  |  |  |  |  | adverse effects [1]: no adverse effects were reported; daily dose considered non-toxic ([2]; at least for 14 days): < 16 g; tolerability ([2]; daily oral doses of 4-8 g for at least 2 weeks): well tolerated and safe; adverse effects ([2]; oral daily doses of 16-24 g for 14 days, healthy volunteers): increased incidence of soft stools and diarrhea; lethality ([3]; single intravenous dose of up to 2 g/kg): not lethal; acute toxicity ([3]; up to 10 gram/kg intra-peritoneal (i.p.) injection): neither lethal nor did it produce any toxicity
2 | N.N.[Cl][Pt][Cl] [CIS, cisplatin] |  |  |  |  |  |  |  |  |  |  |  |  |  |  | 2-year OS rates [4]: 65.7%
3 | Nc1nc2ccccc2[n+]([O-])n1 [SR4317] | 78.09 | 80.62 | dose proportional effect was observed | 78.86% | 88.17 | 20-30% | 0.47996 | 0.49017 | 614.61 | 0.608 | 1.21097 | 1.12267 | 1535.52 | 1.27333 | 
4 | Nc1nnc2ccccc2n1 [SR4330] | 73.09 | 77.65 | dose proportional effect was observed | 74.37& % | 89.31 | 20-30% | 0.09989 | 0.08188 | 136.67 | 0.10545 | 0.38593 | 0.25483 | 518.92 | 0.28533 | half-life compared with TPZ and SR4317 ([5]; rat plasma): longer than TPZ and SR4317
5 | COc1cccc2c1C(=O)c1c(O)c3c(c(O)c1C2=O)C[C@@](O)(C(=O)CO)C[C@@H]3O[C@H]1C[C@H](N)[C@H](O)[C@H](C)O1 [doxorubicin] |  |  |  |  |  |  |  |  |  |  |  |  |  |  | necrosis in the HCC within the territory of HAL ([6]; Day 1 post-treatment, tirapazamine 3 mg/kg, doxorubicin 10 mg/kg, transient left HAL): about 5%; pathological changes in HCCs ([6]; Day 7, 10 mg/kg with left HAL): Little to no pathological changes
